Measured values: patent US10793525B2, “13-cis-RAMBA retinamides that degrade MNKs for treating cancer” (UNIVERSITY OF MARYLAND, BALTIMORE, priority 2014, dated 2020)
pIC50: −log10 of the molar value.

How the values were obtained:
[1] = tested on: MCF-7 human breast cancer cells; assay: MTT cell proliferation assay, MCF-7; format: cell-based; details: Homo sapiens, MCF7; MCF-7 cells, MTT, SEM < 10%; read-out: GI50s MCF-7
Excerpt: (§1) MCF-7, MDA-MB-231, MDA-MB-468 and SKBR-3 human breast cancer cells and LNCaP, PC-3, and CWR22Rv1 human prostate carcinoma cells (American Type Culture Collection, Manassas, Va., USA) were maintained in RPMI 1640 media (Gibco-Life Technologies, Grand Island, N.Y., USA) supplemented with 10% fetal bovine serum and 1% penicillin/streptomycin. Western blotting was done as mentioned previously,^8, 13b using the following antibodies: AR, Bad, Bax, Bcl-2, eIF4E, Mnk1, Mnk-2, N-cadherin, PARP, peIF4E^ser209 purchased from Cell Signaling Technology, Danvers, Mass., USA. Anti-Mnk2 was purchased from Sigma-Aldrich and normal rabbit IgG, cyclin D1 was from Santa Cruz Biotechnology, CA, USA.
(§2) Cells were plated (2500 cells/well) in 96 well plates and treated with or without specified compounds as described previously.^8a, 12b
(§3) The clinically relevant retinoids, ATRA and 4-HPR and the Mnk inhibitor, cercosporamide were used as comparators in the assays.

LNCaP cells = assay: MTT viability of LNCaP cells with AR and/or Mnk1 siRNA knockdown; format: cell-based, human
Procedure: siRNA (100 nM) was transfected into LNCaP cells using Lipofectamine® 2000 Transfection reagent (Invitrogen) as per manufacturer's protocol. Protein silencing was confirmed by immunoblot analysis. For cell growth assay experiments, transfection complex were removed after 18 h, cells were washed twice with PBS and replaced with growth medium. 24 h later drug was added and harvested after 72 h. For Western blot experiment, transfection complexes were washed off after 18 h and replaced with phenol free media for 24 h. Cells were then treated with 20 μM of VNLG-152 for an additional 24 h and cells were lysed using RIPA lysis buffer.^8b, 27 Luciferase assay was conducted in LNCaP cells using the Dual Luciferase kit (Promega) as described earlier.^8b, 13b
To confirm whether AR and Mnk1 are the major anti-cancer targets of these compounds on LNCaP cells, the percentage of cell survival in LNCaP cells was analyzed by MTT assay following transient transfection with AR siRNA and/or Mnk1 siRNA for 18 hours.

[2] = tested on: CWR22Rv1 human prostate carcinoma cells; assay: MTT cell proliferation assay, CWR22Rv1; format: cell-based; details: SEM < 10%, read-out: GI50s CWR22Rv1
Excerpt: as §1, §2, §3
(§4) The PC-3 cell line was the least sensitive to all the compounds tested.

[3] = tested on: fAR, Mnk1/2, peIF4E, cyclin D1 and cleaved PARP; assay: Western blot of lysates from LNCaP cells; format: cell-based, human; details: 0.6-20 μM, 24 hours
Excerpt: as §1
Equal protein concentrations from LNCaP cells treated with Compounds 16, 20 and 22 at different concentrations (0.6-20 μM) for 24 hours were separated by SDS-PAGE and western blots probed with antibodies to fAR, Mnk1/2, peIF4E, cyclin D1 and cleaved PARP. Vehicle treated cells were included as a control and all blots were reprobed for β-actin for loading control.

MDA-MB-231 cells = assay: Wound-healing assay, MDA-MB-231 cell migration; format: cell-based, human; details: 5 μM, 24 h
Procedure: Wound healing assay and matrigel invasion assay were also conducted as described previously using highly metastatic PC-3 cells following treatment with 5 μM of RRs for 24 h.^8a,26
Based on previous studies with closely related compound,^8 the inhibitory effects of Compounds 16, 20 and 22 on cell migration were evaluated, using the human metastatic BC cell line, MDA-MB-231 by wound-healing assay. MDA-MB-231 cells (5×10^5 cells/well) were seeded on Boyden chamber, grown to confluence and scratches made at experimental tome zero. The cells were treated with indicated compounds (5 μM each) for 24 h. Representative photomicrographs of initial and final wounds are shown at 100× magnification. […] At 24 hours after cell monolayers were wounded, control cells had completely filled in the scratched area.

[4] = tested on: SKBR-3 human breast cancer cells; assay: MTT cell proliferation assay, SKBR-3; format: cell-based; details: SK-BR-3, SKBR-3 cells, SEM < 10%, read-out: GI50s SKBR-3
Excerpt: as §1, §2, §3

[5] = tested on: Mnk1 and 2, peIF4E, eIF4E and cPARP; assay: Western blot of lysates from MCF-7, MDA-MB-231 and MDA-MB-468 cells; format: cell-based, human; details: MCF-7, MDA-MB-231, MDA-MB-468 cells, 24 hours
Excerpt: as §1
As we previously reported, the anti-proliferative effects of the 1st generation MNKDAs in BC cells was due to degradation of Mnk1/2 with subsequent depletion of peIF4E and induction of apoptosis.^8a To determine if these compounds modulate Mnk1/2 and related oncogenic proteins, the inventors performed western blot of lysates from MCF-7, MDA-MB-231 and MDA-MB-468 human breast cancer cells treated with Compounds 16, 20, and 22, or with vehicle (DMSO, negative control), or Compound 6 (positive control). Equal protein concentrations from MCF-7 (FIG. 3A), MDA-MB-231 (FIG. 3B) and MDA-MB-468 (FIG. 3C) cells treated for 24 hours with Compounds 16, 20 and 22 at the various concentrations as indicated and Compound 6 (20 μmol/L) were separated by SDS-PAGE and western blots probed with antibodies to Mnk1 and 2, peIF4E, eIF4E and cPARP. Vehicle treated cells were included as control and all blots were reprobed for GAPDH for loading control.

[6] = tested on: PC-3 human prostate carcinoma cells; assay: MTT cell proliferation assay, PC-3; format: cell-based; details: PC-3 cells, SEM < 10%, read-out: GI50s PC-3
Excerpt: as §1, §2, §3, §4

[7] = tested on: MDA-MB-468 human breast cancer cells; assay: MTT cell proliferation assay, MDA-MB-468; format: cell-based; details: MDA-MB-468 cells, SEM < 10%, read-out: GI50s MDA-MB-468
Excerpt: as §1, §2, §3

`CC1=C(/C=C/C(C)=C/C=C/C(C)=C\C(=O)Nc2cccc(F)c2)C(C)(C)CCC1n1ccnc1` (stereo not shown) [Compound 20, (2Z,4E,6E,8E)-9-(3-(1H-imidazol-1-yl)-2,6,6-trimethylcyclohex-1-en-1-yl)-N-(3-fluorophenyl)-3,7-dimethylnona-2,4,6,8-tetraenamide] was tested, and the pIC50 [1] was 5.24, the “cell viability, un-transfected LNCaP cells” value (LNCaP cells; 5 μM, 72 hours, MTT) was “robust reduction in cell viability” and the “cell viability, LNCaP cells harboring AR or Mnk1 knockdown” value (LNCaP cells; 5 μM, compared to siRNA alone treated counterparts) was “sensible decrease in cell viability”. For the same compound, the “cell viability, LNCaP cells with double knockdown of AR and Mnk1” value (LNCaP cells; compared to cells co-treated with Mnk1 and AR siRNA) was “did not show any significant decrease in cell viability”, the pIC50 [2] was 5.69 and the “cleaved PARP (c-PARP)” value [3] was “induced cleaved PARP”. The “cyclin D1” value [3] was “significant depletion”, the “expression of total eIF4E” value [3] was “no noticeable effects” and the “expressions of fAR, Mnk1 and Mnk2” value [3] was “significantly and in a dose-dependent fashion, reduced”. The “migration of MDA-MB-231 cells” value (MDA-MB-231 cells) was “significantly inhibited migration”, the pIC50 [4] was 4.77 and the “expression of total eIF4E” value [5] was “no noticeable effects”. For the same compound, the “expressions of Mnk1, Mnk2 and peIF4E” value [5] was “significantly and dose-dependently, reduced”, the “formation of c-PARP (apoptosis)” value [5] was “dose-dependent formation of c-PARP” and the pIC50 [6] was 5.25. For the same compound, the pIC50 [7] was 5.17.
